Data on eight compounds can be found in patent publication US20240000795A1, “METHODS AND COMPOSITIONS RELATING TO CONTROLLING PSYCHEDELIC EFFECTS WITH SEROTONIN RECEPTOR MODULATORS” (Terran Biosciences Inc., priority 2022, published 2024).

“Also recorded” adds a separate entry of the source.

Test [1] concerns the target T1, 5-HT2A receptors (Mus musculus, UniProt P35363). Description: Psilocybin-induced head twitch response in mice, 5-HT2A antagonist given i.v. after psilocybin. Type of test: in vivo, C57BL/6J mice. More on the design: widely used to explore the effect of treatments on 5-HT2A receptors in vivo; from tissue; host or cells: whole living male C57BL/6J mice (behavioural read-out). As to conditions: for head-twitch response (cumulative head-twitches): psilocybin 2 mg/kg i.p., monitored until 40 min after agonist dosing; for Result (Psilocybin Combinations tested, summary): summary of Examples 1-17.
Description: (§1) See, Keller and Umbreit, Science, 1956, 124: 723). […] The head-shake response is elicited by a wide variety of known hallucinogens such as LSD, psilocybin, psilocin, N,N-dimethyltryptamine (DMT), and mescaline as well as serotonin-releasing agents and direct 5-HT2 agonists. See, Canal and Morgan, Drug Test Anal., 2012, 4, 556-576 2012. 2,5-dimethoxy-4-iodoamphetamine (DOI) has also been reported to elicit head shakes in rats (see Amt and Hyttel Eur. J. Pharmacol., 1989, 161:45; also see Kennett et al., Br. J. Pharmacol., 1994, 111: 797-802) and head-twitches in mice (see Darmani et al., Pharmacol. Biochem. Behav., 1990, 36: […]), both of which were blocked by administration of the fairly selective 5-HT2A antagonist ketanserin. Later studies have confirmed 5-HT2A receptors are the primary, direct mediators of the response and that the headshake response in rats is essentially the same as head-twitches in mice, at least in regards to similarity in appearance and 5-HT2A receptor dependence. See, Canal and Morgan, Drug Test Anal., 2012, 4, 556-576 2012.
Male C57BL/6J mice (approximately 25 g) was group housed in stock room B20D of the Saretius animal at the University of Reading. Animals was maintained under a 12 h light/dark cycle, at 23° C. with humidity controlled
(§2) At T=−60 min, C57BL/6J mice were individually housed into transparent observation cages with bedding removed and left to habituate. At T=−3 min, mice were placed into heated cages at 40° C. At T=0 h, groups of 3 mice were dosed intraperitoneally with psilocybin (2 mg/kg). Following dosing, mice were replaced into the heated cages and head-twitch responses continuously scored for 7 min. After 7 min, mice were intravenously dosed via the lateral tail vein with either vehicle 1 (saline) or volinanserin 1 mg/kg in 5 mL/kg dosing volumes. Mice were replaced into the observation cages and head twitch behavior were monitored until 40 min after agonist dosing. Cumulative head-twitches were measured every 2 minutes until 40 minutes after agonist dosing.
as §2, with “min. […]” for “min. After 7 min, mice were intravenously dosed via the lateral tail vein with either vehicle 1 (saline) or volinanserin 1 mg/kg in 5 mL/kg dosing volumes.”, “behavior was” for “behavior were”, “Cumulative head-twitch behavior was” for “Cumulative head-twitches were”
as §2, with “min. […]” for “min. After 7 min, mice were intravenously dosed via the lateral tail vein with either vehicle 1 (saline) or volinanserin 1 mg/kg in 5 mL/kg dosing volumes.”, “behavior was” for “behavior were”, “Cumulative head-twitch behavior was” for “Cumulative head-twitches were”
as §2, with “min. […]” for “min. After 7 min, mice were intravenously dosed via the lateral tail vein with either vehicle 1 (saline) or volinanserin 1 mg/kg in 5 mL/kg dosing volumes.”, “behavior was” for “behavior were”, “Cumulative head-twitch behavior was” for “Cumulative head-twitches were”

For test [2], the target named is T1, 5-HT2A receptors. Description: LSD-induced head twitch response in mice, 5-HT2A antagonist given i.v. after LSD. As to conditions: for head-twitch response (cumulative head-twitches): LSD 0.32 mg/kg i.p., monitored until 40 min after agonist dosing; for Result (LSD Combinations tested, summary): summary of Examples 1-17, antagonist administered after LSD. On the set-up: widely used to explore the effect of treatments on 5-HT2A receptors in vivo; from tissue; host or cells: whole living male C57BL/6J mice (behavioural read-out). It is filed as in vivo, C57BL/6J mice.
Description: as §1
Male C57BL/6J mice (approximately 25 g) was group housed in stock room B20D of the Saretius animal at the University of Reading. […]
as §2, with “At T=−2” for “At T=−3”, “with LSD (0.32” for “with psilocybin (2”, “for 8” for “for 7”, “After 8” for “After 7”, “Cumulative head-twitch behavior was” for “Cumulative head-twitches were”
At T=−60 min, C57BL/6J mice were individually housed into transparent observation cages with bedding removed and left to habituate. At T=−2 min, mice were placed into heated cages at 40° C. At T=0 h, groups of 3 mice were dosed intraperitoneally with LSD (0.32 mg/kg).

In test [3] the target is T1, 5-HT2A receptors. On the set-up: head-twitches in mice (see Darmani et al., Pharmacol. Biochem. Behav., 1990); host or cells: living mice (cited study). As to conditions: mice; 2,5-dimethoxy-4-iodoamphetamine (DOI); cited from earlier work.
The target in test [4] is T2, 5-HT2A receptors (Rattus norvegicus, UniProt P14842).
T2 construct: has also been reported to elicit head shakes in rats; host or cells: living rats (cited studies)
As to conditions: rats; 2,5-dimethoxy-4-iodoamphetamine (DOI); cited from earlier work.

The subject of test [5] is psilocybin induced head twitches in mice. As to conditions: psilocybin 2 mg/kg i.p.; quetiapine 1 mg/kg i.v. after T=7 minutes; cumulative head twitches until 40 minutes. How it is done: Mice were dosed intraperitoneally with psilocybin (2 mg/kg) and head-twitch responses were continuously scored for 7 minutes. […] Cumulative head-twitch behavior was measured every 2 minutes until 40 minutes after agonist dosing.

The conditions of test [6]: background; compared with a therapy session of up to several hours; cited from earlier work.
The mark [7] stands for this setting: antagonist 1 mg/kg i.v. after 7 min.
Setting [8] is: antagonist administered after psilocybin.
The mark [9] stands for this setting: antagonist 1 mg/kg i.v. after 8 min.
The mark [10] stands for this setting: antagonist 4 mg/kg i.v. after 7 min.

T1 sequence (P35363 whole entry): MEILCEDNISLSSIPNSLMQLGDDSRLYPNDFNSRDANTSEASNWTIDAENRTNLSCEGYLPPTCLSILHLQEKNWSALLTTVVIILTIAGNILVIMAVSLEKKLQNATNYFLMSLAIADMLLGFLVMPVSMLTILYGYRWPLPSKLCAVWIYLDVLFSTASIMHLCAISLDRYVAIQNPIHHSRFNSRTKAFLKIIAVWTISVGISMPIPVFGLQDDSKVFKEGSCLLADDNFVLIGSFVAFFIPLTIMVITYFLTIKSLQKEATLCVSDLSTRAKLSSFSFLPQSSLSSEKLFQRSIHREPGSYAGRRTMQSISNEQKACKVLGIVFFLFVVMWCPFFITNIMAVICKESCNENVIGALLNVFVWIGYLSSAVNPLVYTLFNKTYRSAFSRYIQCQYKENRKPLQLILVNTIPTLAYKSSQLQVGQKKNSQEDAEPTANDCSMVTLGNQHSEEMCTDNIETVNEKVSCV
T2 sequence (P14842 whole entry): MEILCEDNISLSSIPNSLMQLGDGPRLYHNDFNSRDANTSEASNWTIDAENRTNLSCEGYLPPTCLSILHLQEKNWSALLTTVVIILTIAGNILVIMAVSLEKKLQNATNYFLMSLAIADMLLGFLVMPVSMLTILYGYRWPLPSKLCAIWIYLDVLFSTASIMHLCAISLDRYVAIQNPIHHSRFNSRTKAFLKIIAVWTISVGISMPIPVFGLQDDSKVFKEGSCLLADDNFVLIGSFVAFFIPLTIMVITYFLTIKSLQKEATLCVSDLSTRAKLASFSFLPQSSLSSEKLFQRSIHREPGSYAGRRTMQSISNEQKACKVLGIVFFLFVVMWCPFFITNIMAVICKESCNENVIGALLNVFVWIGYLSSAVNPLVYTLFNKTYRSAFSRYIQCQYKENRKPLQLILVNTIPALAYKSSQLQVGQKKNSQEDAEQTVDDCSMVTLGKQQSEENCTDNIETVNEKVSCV

Consider `N#Cc1c[nH]c2c(C(=O)N3CCN(CCc4ccc(F)cc4)CC3)cccc12` [pruvanserin], for which the “head-twitch response (cumulative head-twitches)” value on 5-HT2A receptors [1] (setting [7]) and on 5-HT2A receptors [2] (setting [9]) was “completely suppressed” throughout. Besides, the “Result (Psilocybin Combinations tested, summary)” value on 5-HT2A receptors [1] (setting [8]) is “full ending”; on 5-HT2A receptors [1] (antagonist administered after psilocybin, listed as Pruvanserin) it was “Full suppression of head twitch”. In addition, the “Result (LSD Combinations tested, summary)” value at 5-HT2A receptors [2] is reported as “full suppression”; on 5-HT2A receptors [2] (listed as Pruvanserin), “Full suppression of head twitch”.
With `Cc1nc2sccn2c(=O)c1CCN1CCC(=C(c2ccc(F)cc2)c2ccc(F)cc2)CC1` [ritanserin], the “head-twitch response (cumulative head-twitches)” value on 5-HT2A receptors [1] (setting [7]) was “completely suppressed”; at 5-HT2A receptors [2] (setting [9]) it was “partially suppressed”. Also, the “Result (Psilocybin Combinations tested, summary)” value on 5-HT2A receptors [1] (setting [8]) is recorded as “full ending”; at 5-HT2A receptors [1] (antagonist administered after psilocybin, listed as Ritanserin), “Full suppression of head twitch”. In addition, the “Result (LSD Combinations tested, summary)” value on 5-HT2A receptors [2] was “full suppression”; at 5-HT2A receptors [2] (listed as Ritanserin), “Full suppression of head twitch”.
Regarding `COc1ccc(NC(=O)Nc2ccc(F)cc2F)cc1-c1c(Br)cnn1C` [nelotanserin], the “head-twitch response (cumulative head-twitches)” value is on record as “partially suppressed” at 5-HT2A receptors [1] (setting [7]), “completely suppressed; also recorded: completed suppressed” on 5-HT2A receptors [1] (setting [10]) and “partially suppressed” on 5-HT2A receptors [2] (setting [9]). In addition, the “Result (Psilocybin Combinations tested, summary)” value is “partial suppression” at 5-HT2A receptors [1] (setting [8]); “Partial suppression of head twitch,” on 5-HT2A receptors [1] (antagonist administered after psilocybin, listed as Nelotanserin); “full suppression at high dose” on 5-HT2A receptors [1] (at high dose). In addition, the “Result (LSD Combinations tested, summary)” value at 5-HT2A receptors [2] is given as “partial suppression”; at 5-HT2A receptors [2] (listed as Nelotanserin), “Partial suppression of head twitch”.
Consider `O=C(c1ccc(F)cc1)C1CCN(CCn2c(=O)[nH]c3ccccc3c2=O)CC1` [ketanserin], for which, on 5-HT2A receptors [3], the DOI-elicited head-twitches result was “blocked”. The DOI-elicited head shakes result on 5-HT2A receptors [4] is on record as “blocked”. In addition, the “head-twitch response (cumulative head-twitches)” value at 5-HT2A receptors [1] (antagonist 2 mg/kg i.v. after 7 min) and on 5-HT2A receptors [2] (antagonist 2 mg/kg i.v. after 8 min) was “completely suppressed” in each case.
Turning to `OCCOCCN1CCN(C2=Nc3ccccc3Sc3ccccc32)CC1` [quetiapine], the head-twitch response entry in test [5] was “completely suppressed”.
As to `CCN(CC)C(=O)[C@@H]1C=C2c3cccc4[nH]cc(c34)C[C@H]2N(C)C1` [LSD], in test [6], the duration of effects is 12 h.
Turning to `O=c1[nH]c2ccccc2n1CCN1CCN(c2cccc(C(F)(F)F)c2)CC1` [flibanserin], the “head-twitch response (cumulative head-twitches)” value on 5-HT2A receptors [1] (setting [7]), on 5-HT2A receptors [1] (setting [10]), at 5-HT2A receptors [2] (setting [9]) and at 5-HT2A receptors [2] (antagonist 4 mg/kg i.v. after 8 min) was “partially suppressed” in each case. Moreover, the “Result (Psilocybin Combinations tested, summary)” value is “partial suppression” on 5-HT2A receptors [1] (setting [8]) and “Partial suppression of head twitch” at 5-HT2A receptors [1] (antagonist administered after psilocybin, listed as Flibanserin). The entries for the “Result (LSD Combinations tested, summary)” value on 5-HT2A receptors [2] and at 5-HT2A receptors [2] (listed as Flibanserin) were “partial suppression” and “Partial suppression of head twitch”, respectively.
For the compound `COc1cccc([C@H](O)C2CCN(CCc3ccc(F)cc3)CC2)c1OC` [volinanserin], the “head-twitch response (cumulative head-twitches)” value at 5-HT2A receptors [1] (setting [7]), on 5-HT2A receptors [2] (antagonist 1 mg/kg i.v. after 5 min), on 5-HT2A receptors [2] (setting [9]) and at 5-HT2A receptors [2] (antagonist 1 mg/kg i.v. after 10 min) was “completely suppressed” each time. The “Result (Psilocybin Combinations tested, summary)” value at 5-HT2A receptors [1] (setting [8]) is reported as “full ending”; on 5-HT2A receptors [1] (antagonist administered after psilocybin, listed as Volinanserin), “Full suppression of head twitch”. On 5-HT2A receptors [2], the “Result (LSD Combinations tested, summary)” value was “full suppression”.
